According to ChEMBL document CHEMBL1201862, “PubChem BioAssay data set” (2004):
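Protocol summary: plate cells (96-well), add compound at 5 concentrations, incubate 48 h, interpolate endpoints linearly. The concentration for 50% growth inhibition is given as GI50.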 The source made the active and inactive calls. No stated cut-off is given here; in the data, active = GI50 up to about 1.1 µM and inactive = higher.

What was measured:
Assay in all cases: inhibition of tumour cell growth, NCI panel, 48 h
[1] = test system: 786-0
[2] = test system: A549
[3] = test system: ACHN
[4] = test system: CAKI-1
[5] = test system: CCRF-CEM
[6] = test system: COLO 205
[7] = test system: DLD-1
[8] = test system: DMS-114
[9] = test system: HCC 2998
[10] = test system: HCT-116
[11] = test system: HCT-15
[12] = test system: HL-60
[13] = test system: HOP-18
[14] = test system: HOP-62
[15] = test system: HT-29
[16] = test system: IGROV-1
[17] = test system: K562
[18] = test system: KM-20L2
[19] = test system: LOX IMVI
[20] = test system: LXFL 529
[21] = test system: M14
[22] = test system: M19-MEL
[23] = test system: MOLT-4
[24] = test system: NCI-H226
[25] = test system: NCI-H23
[26] = test system: NCI-H460
[27] = test system: OVCAR-4
[28] = test system: OVCAR-8
[29] = test system: RPMI-8226
[30] = test system: RXF 393
[31] = test system: RXF 631
[32] = test system: SF-268
[33] = test system: SF-295
[34] = test system: SF-539
[35] = test system: SK-MEL-5
[36] = test system: SN12C
[37] = test system: SNB-19
[38] = test system: SNB-75
[39] = test system: SR
[40] = test system: SW-620
[41] = test system: TK-10
[42] = test system: UACC-257
[43] = test system: UACC-62
[44] = test system: UO-31
[45] = test system: A498
[46] = test system: DMS-273
[47] = test system: EKVX
[48] = test system: KM12
[49] = test system: NCI-H522
[50] = test system: OVCAR-3
[51] = test system: SK-MEL-28
[52] = test system: SK-MEL-2
[53] = test system: SK-OV-3
[54] = test system: SNB-78
[55] = test system: U-251
[56] = test system: XF498
[57] = test system: HOP-92
[58] = test system: Malme-3M
[59] = test system: OVCAR-5

## COc1cc([C@@H]2c3cc4c(cc3C(N)C3COC(=O)[C@@H]32)OCO4)cc(OC)c1O (some centres not stated)
[1]
  GI50: 0.537 µM (active)
[2]
  GI50: 0.337 µM (active)
[3]
  GI50: 0.146 µM (active)
[4]
  GI50: 0.163 µM (active)
[5]
  GI50: 0.339 µM (active)
[6]
  GI50: 0.13 µM (active)
[7]
  GI50: 0.377 µM (active)
[8]
  GI50: 0.245 µM (active)
[9]
  GI50: 0.249 µM (active)
[10]
  GI50: 0.33 µM (active)
[11]
  GI50: 0.324 µM
[12]
  GI50: 0.19 µM (active)
[13]
  GI50: > 100 µM (inactive)
[14]
  GI50: 2.88 µM (inactive)
[15]
  GI50: 0.232 µM (active)
[16]
  GI50: 0.515 µM (active)
[17]
  GI50: 0.225 µM (active)
[18]
  GI50: 0.176 µM (active)
[19]
  GI50: 0.241 µM (active)
[20]
  GI50: 0.117 µM (active)
[21]
  GI50: 0.269 µM (active)
[22]
  GI50: 0.334 µM (active)
[23]
  GI50: 0.266 µM (active)
[24]
  GI50: 0.292 µM (active)
[25]
  GI50: 0.373 µM (active)
[26]
  GI50: 0.304 µM (active)
[27]
  GI50: 0.71 µM (active)
[28]
  GI50: 0.308 µM (active)
[29]
  GI50: 0.277 µM (active)
[30]
  GI50: 0.049 µM (active)
[31]
  GI50: 0.178 µM (active)
[32]
  GI50: 0.399 µM (active)
[33]
  GI50: 0.0624 µM (active)
[34]
  GI50: 0.189 µM (active)
[35]
  GI50: 0.244 µM (active)
[36]
  GI50: 0.445 µM (active)
[37]
  GI50: 0.17 µM (active)
[38]
  GI50: 0.133 µM (active)
[39]
  GI50: 0.0857 µM (active)
[40]
  GI50: 0.301 µM (active)
[41]
  GI50: 0.401 µM (active)
[42]
  GI50: 0.232 µM (active)
[43]
  GI50: 0.037 µM (active)
[44]
  GI50: 0.695 µM (active)

## CC1CCN(CCC(=O)CC(c2ccccc2)c2c(O)c3ccccc3oc2=O)CC1 (configuration not stated)
[1]
  GI50: > 100 µM (inactive)
[45]
  GI50: > 100 µM (inactive)
[2]
  GI50: > 100 µM (inactive)
[3]
  GI50: > 100 µM (inactive)
[4]
  GI50: > 100 µM (inactive)
[5]
  GI50: > 100 µM (inactive)
[6]
  GI50: > 100 µM (inactive)
[7]
  GI50: > 100 µM (inactive)
[8]
  GI50: > 100 µM (inactive)
[46]
  GI50: > 100 µM (inactive)
[47]
  GI50: > 100 µM (inactive)
[10]
  GI50: > 100 µM (inactive)
[11]
  GI50: > 100 µM
[12]
  GI50: > 100 µM (inactive)
[14]
  GI50: > 100 µM (inactive)
[15]
  GI50: > 100 µM (inactive)
[16]
  GI50: > 100 µM (inactive)
[17]
  GI50: > 100 µM (inactive)
[18]
  GI50: > 100 µM (inactive)
[48]
  GI50: > 100 µM (inactive)
[19]
  GI50: > 100 µM (inactive)
[21]
  GI50: > 100 µM (inactive)
[22]
  GI50: > 100 µM (inactive)
[23]
  GI50: > 100 µM (inactive)
[24]
  GI50: 80 µM (inactive)
[25]
  GI50: > 100 µM (inactive)
[26]
  GI50: > 100 µM (inactive)
[49]
  GI50: > 100 µM (inactive)
[50]
  GI50: > 100 µM (inactive)
[27]
  GI50: > 100 µM (inactive)
[28]
  GI50: > 100 µM (inactive)
[29]
  GI50: > 100 µM (inactive)
[30]
  GI50: > 100 µM (inactive)
[31]
  GI50: > 100 µM (inactive)
[32]
  GI50: > 100 µM (inactive)
[33]
  GI50: > 100 µM (inactive)
[34]
  GI50: > 100 µM (inactive)
[51]
  GI50: > 100 µM (inactive)
[52]
  GI50: > 100 µM (inactive)
[35]
  GI50: > 100 µM (inactive)
[53]
  GI50: > 100 µM (inactive)
[37]
  GI50: > 100 µM (inactive)
[38]
  GI50: 82.8 µM (inactive)
[54]
  GI50: 34.4 µM (inactive)
[39]
  GI50: > 100 µM (inactive)
[40]
  GI50: > 100 µM (inactive)
[41]
  GI50: > 100 µM (inactive)
[55]
  GI50: > 100 µM (inactive)
[42]
  GI50: > 100 µM (inactive)
[43]
  GI50: > 100 µM (inactive)
[44]
  GI50: > 100 µM (inactive)
[56]
  GI50: > 100 µM (inactive)

## CC(=O)c1cc([N+](=O)[O-])ccc1OCC(=O)O
[1]
  GI50: > 100 µM (inactive)
[45]
  GI50: > 100 µM (inactive)
[2]
  GI50: > 100 µM (inactive)
[3]
  GI50: > 100 µM (inactive)
[4]
  GI50: > 100 µM (inactive)
[5]
  GI50: > 100 µM (inactive)
[6]
  GI50: > 100 µM (inactive)
[7]
  GI50: > 100 µM (inactive)
[8]
  GI50: > 100 µM (inactive)
[46]
  GI50: > 100 µM (inactive)
[47]
  GI50: > 100 µM (inactive)
[9]
  GI50: > 100 µM (inactive)
[10]
  GI50: > 100 µM (inactive)
[11]
  GI50: > 100 µM
[12]
  GI50: > 100 µM (inactive)
[14]
  GI50: > 100 µM (inactive)
[57]
  GI50: > 100 µM (inactive)
[15]
  GI50: > 100 µM (inactive)
[16]
  GI50: > 100 µM (inactive)
[17]
  GI50: > 100 µM (inactive)
[18]
  GI50: > 100 µM (inactive)
[48]
  GI50: > 100 µM (inactive)
[19]
  GI50: > 100 µM (inactive)
[20]
  GI50: > 100 µM (inactive)
[21]
  GI50: > 100 µM (inactive)
[22]
  GI50: > 100 µM (inactive)
[23]
  GI50: > 100 µM (inactive)
[58]
  GI50: > 100 µM (inactive)
[24]
  GI50: > 100 µM (inactive)
[25]
  GI50: > 100 µM (inactive)
[26]
  GI50: > 100 µM (inactive)
[49]
  GI50: > 100 µM (inactive)
[50]
  GI50: > 100 µM (inactive)
[27]
  GI50: > 100 µM (inactive)
[59]
  GI50: > 100 µM (inactive)
[28]
  GI50: > 100 µM (inactive)
[29]
  GI50: > 100 µM (inactive)
[30]
  GI50: > 100 µM (inactive)
[31]
  GI50: > 100 µM (inactive)
[32]
  GI50: > 100 µM (inactive)
[33]
  GI50: > 100 µM (inactive)
[34]
  GI50: > 100 µM (inactive)
[51]
  GI50: > 100 µM (inactive)
[52]
  GI50: > 100 µM (inactive)
[35]
  GI50: > 100 µM (inactive)
[53]
  GI50: > 100 µM (inactive)
[36]
  GI50: > 100 µM (inactive)
[37]
  GI50: > 100 µM (inactive)
[38]
  GI50: > 100 µM (inactive)
[54]
  GI50: > 100 µM (inactive)
[40]
  GI50: > 100 µM (inactive)
[41]
  GI50: > 100 µM (inactive)
[55]
  GI50: > 100 µM (inactive)
[42]
  GI50: > 100 µM (inactive)
[43]
  GI50: > 100 µM (inactive)
[44]
  GI50: > 100 µM (inactive)
